In ChEMBL document CHEMBL4118166, “Design, synthesis and evaluation of potent and selective inhibitors of mono-(ADP-ribosyl)transferases PARP10 and PARP14” (Bioorg Med Chem Lett, 2018):
≈ marks a conversion by molar mass, not a printed value.

Assays:
[1] = Metabolic stability in mouse liver microsomes assessed as compound remaining level at 5 uM after 2 hrs in presence of G-6-P, G-6-PDH, MgCl2 and NADP+ by LC-MS/MS analysis; type: ADME, microsome; settings: read-out: Stability
[2] = Metabolic stability in mouse liver microsomes compound remaining level at 5 uM in absence of co-factors after 2 hrs by LC-MS/MS analysis; type: ADME, microsome; settings: read-out: Stability
[3] = Thermodynamic solubility of the compound in phosphate buffer at pH 7.4 after 24 hrs by HPLC/UV based shake flask method; type: physicochemical; settings: read-out: Therm_solubility
[4] = target: T1, Protein mono-ADP-ribosyltransferase PARP10 (Homo sapiens, UniProt Q53GL7); assay: Inhibition of full length recombinant His6-tagged human PARP10 expressed in Escherichia coli BL21(DE3) preincubated for 15 mins followed by biotinylated NAD+ addition by chemiluminescence assay
T1 sequence (Q53GL7 whole entry): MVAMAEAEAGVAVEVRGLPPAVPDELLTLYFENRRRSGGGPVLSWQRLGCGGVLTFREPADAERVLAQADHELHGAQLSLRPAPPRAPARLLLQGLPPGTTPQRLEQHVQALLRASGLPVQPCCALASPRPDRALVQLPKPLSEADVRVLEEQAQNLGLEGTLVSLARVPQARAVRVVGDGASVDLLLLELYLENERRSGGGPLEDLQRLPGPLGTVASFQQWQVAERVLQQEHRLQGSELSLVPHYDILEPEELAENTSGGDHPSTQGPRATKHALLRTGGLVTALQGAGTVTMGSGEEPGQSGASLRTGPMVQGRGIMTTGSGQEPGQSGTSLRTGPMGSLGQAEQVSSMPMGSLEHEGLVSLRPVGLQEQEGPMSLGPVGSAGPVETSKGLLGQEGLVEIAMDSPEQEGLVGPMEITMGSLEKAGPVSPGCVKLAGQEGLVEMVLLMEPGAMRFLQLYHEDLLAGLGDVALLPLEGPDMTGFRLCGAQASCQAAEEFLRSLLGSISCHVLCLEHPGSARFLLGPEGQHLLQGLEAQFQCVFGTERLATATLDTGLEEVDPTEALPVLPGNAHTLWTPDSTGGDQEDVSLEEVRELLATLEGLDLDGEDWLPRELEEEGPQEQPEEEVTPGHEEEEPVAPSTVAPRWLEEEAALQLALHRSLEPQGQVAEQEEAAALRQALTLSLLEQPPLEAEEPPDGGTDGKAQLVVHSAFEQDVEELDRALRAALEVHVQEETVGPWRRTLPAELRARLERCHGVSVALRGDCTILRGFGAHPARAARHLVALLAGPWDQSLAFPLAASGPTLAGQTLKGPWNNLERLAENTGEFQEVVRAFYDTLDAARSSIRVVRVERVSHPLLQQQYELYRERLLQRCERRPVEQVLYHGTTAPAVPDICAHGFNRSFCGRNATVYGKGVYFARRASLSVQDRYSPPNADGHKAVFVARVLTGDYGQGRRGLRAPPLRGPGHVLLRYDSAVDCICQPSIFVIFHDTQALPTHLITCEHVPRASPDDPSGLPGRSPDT

[5] = target: T2, Protein mono-ADP-ribosyltransferase PARP15 (Homo sapiens, UniProt Q460N3); assay: Inhibition of full length recombinant His6-tagged PARP15 catalytic domain (unknown origin) expressed in Escherichia coli BL21(DE3) by fluorescence based assay
T2 sequence (Q460N3 whole entry): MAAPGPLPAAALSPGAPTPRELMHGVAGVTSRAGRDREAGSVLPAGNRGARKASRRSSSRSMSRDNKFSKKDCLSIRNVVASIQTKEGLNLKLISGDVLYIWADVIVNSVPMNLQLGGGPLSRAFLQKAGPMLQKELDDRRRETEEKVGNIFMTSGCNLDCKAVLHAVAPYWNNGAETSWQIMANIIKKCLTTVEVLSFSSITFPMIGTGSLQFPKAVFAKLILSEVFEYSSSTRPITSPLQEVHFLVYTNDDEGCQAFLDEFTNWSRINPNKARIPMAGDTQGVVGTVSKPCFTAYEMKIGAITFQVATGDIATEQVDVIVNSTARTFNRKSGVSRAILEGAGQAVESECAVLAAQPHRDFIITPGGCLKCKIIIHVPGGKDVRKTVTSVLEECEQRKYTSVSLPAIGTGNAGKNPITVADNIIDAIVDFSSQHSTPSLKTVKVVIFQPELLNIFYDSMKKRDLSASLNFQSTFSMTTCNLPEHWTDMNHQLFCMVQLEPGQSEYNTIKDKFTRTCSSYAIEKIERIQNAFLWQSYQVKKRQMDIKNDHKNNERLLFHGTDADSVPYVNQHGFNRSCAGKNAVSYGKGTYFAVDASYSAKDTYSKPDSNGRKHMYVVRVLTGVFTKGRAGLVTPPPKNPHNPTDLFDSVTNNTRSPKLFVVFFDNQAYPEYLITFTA

[6] = target: Protein mono-ADP-ribosyltransferase PARP14 (Homo sapiens) (UniProt Q460N5); assay: Inhibition of full length recombinant His6-tagged human PARP14 WWA/catalytic domain expressed in Escherichia coli BL21(DE3) at 5 uM preincubated for 15 mins followed by biotinylated NAD+ addition by chemiluminescence assay relative to control
Protein mono-ADP-ribosyltransferase PARP14 (Homo sapiens), sequence (Q460N5 whole entry, the tested form may be a part): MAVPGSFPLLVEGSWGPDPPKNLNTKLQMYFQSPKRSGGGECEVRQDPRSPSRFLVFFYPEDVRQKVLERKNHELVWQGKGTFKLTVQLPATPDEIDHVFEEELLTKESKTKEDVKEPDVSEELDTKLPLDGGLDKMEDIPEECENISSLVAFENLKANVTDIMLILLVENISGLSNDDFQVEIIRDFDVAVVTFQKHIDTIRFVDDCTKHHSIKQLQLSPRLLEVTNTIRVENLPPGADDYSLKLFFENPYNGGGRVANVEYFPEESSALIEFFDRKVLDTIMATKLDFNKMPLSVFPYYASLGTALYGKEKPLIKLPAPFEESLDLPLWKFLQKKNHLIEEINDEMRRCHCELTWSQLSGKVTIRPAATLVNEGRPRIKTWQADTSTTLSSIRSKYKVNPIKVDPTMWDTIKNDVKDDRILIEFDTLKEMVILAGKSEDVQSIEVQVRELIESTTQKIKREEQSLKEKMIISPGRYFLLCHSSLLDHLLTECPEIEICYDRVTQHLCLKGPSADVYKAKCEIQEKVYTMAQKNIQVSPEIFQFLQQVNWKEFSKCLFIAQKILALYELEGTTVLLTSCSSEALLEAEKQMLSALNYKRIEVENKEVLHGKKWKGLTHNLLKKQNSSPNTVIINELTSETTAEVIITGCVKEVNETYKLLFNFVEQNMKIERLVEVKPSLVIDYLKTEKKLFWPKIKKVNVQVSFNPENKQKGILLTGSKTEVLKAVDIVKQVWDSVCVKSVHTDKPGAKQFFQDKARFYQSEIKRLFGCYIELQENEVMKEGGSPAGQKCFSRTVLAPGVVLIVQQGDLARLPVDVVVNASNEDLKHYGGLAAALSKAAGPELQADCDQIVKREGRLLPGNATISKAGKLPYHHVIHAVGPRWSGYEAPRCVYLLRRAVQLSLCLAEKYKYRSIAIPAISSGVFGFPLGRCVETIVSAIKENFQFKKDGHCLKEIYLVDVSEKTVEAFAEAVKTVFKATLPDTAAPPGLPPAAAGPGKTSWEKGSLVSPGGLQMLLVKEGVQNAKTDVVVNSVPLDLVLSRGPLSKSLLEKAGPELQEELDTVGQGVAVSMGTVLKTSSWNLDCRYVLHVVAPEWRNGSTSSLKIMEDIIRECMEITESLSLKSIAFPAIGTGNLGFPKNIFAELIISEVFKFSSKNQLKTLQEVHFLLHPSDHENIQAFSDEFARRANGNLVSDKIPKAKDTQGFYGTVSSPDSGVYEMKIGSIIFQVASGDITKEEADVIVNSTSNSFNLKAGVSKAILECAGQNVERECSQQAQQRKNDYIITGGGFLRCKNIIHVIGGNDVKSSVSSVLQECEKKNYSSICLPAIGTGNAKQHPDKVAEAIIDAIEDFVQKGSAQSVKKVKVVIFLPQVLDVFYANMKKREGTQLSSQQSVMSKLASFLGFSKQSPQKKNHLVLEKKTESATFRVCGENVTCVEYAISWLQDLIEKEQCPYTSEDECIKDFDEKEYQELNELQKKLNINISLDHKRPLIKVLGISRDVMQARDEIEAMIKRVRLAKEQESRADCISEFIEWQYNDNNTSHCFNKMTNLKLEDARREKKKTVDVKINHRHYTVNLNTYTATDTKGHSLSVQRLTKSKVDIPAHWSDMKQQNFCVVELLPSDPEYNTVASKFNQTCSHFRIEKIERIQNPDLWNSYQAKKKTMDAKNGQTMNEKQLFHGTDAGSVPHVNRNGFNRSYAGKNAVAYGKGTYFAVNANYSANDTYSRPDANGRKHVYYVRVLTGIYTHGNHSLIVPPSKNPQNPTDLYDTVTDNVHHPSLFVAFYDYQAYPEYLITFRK

Row | Structure (SMILES) | remaining at 2 h, 5 µM [1] [%] | remaining at 2 h, 5 µM [2] [%] | solubility thermodynamic at 24 h [3] [µM] | IC50 [4] [nM] | other results
1 | NC(=O)c1ccc(Oc2cccc(C(=O)N3CCN(c4ccc(F)cc4)CC3)c2)cc1 | 39 | 88.1 | 60 (≈ 25.2 µg/mL) |  | 
2 | NC(=O)c1ccc(Oc2ccc(C(=O)N3CCC(c4cccc(F)c4)CC3)cc2)cc1 |  |  |  | 1220 | 
3 | NC(=O)c1ccc(Oc2cccc(C(N)=O)c2)cc1 |  |  |  | 510 | 
4 | NC(=O)c1ccc(Oc2ccc(C(N)=O)cc2)cc1 |  |  |  |  | IC50 [5]: 4170 nM
5 | CCOC(=O)C1CCN(C(=O)c2cccc(Oc3ccc(C(N)=O)cc3)c2)CC1 |  |  |  | 1060 | inhibition [6]: 51%
6 | NC(=O)c1ccc(Oc2cccc(C(=O)N3CCC(O)(c4ccc(F)cc4)CC3)c2)cc1 | 45.3 | 100 | 242 (≈ 105 µg/mL) |  | 
7 | NC(=O)c1ccc(Oc2cccc(C(=O)N3CCC(O)(c4ccccc4)CC3)c2)cc1 |  |  |  | 1500 | 

Second part, led by results:

Row | remaining at 2 h, 5 µM [1] [%] | remaining at 2 h, 5 µM [2] [%] | solubility thermodynamic at 24 h [3] [µM] | IC50 [4] [nM] | Structure (SMILES) | other results
8 | 16.4 | 91.8 | 42 (≈ 17.6 µg/mL) |  | NC(=O)c1ccc(Oc2cccc(C(=O)N3CCC(c4ccc(F)cc4)CC3)c2)cc1 | 
9 |  |  |  | 1650 | NC(=O)c1ccc(Oc2ccc(C(=O)N3CCC(c4ccc(F)cc4)CC3)cc2)cc1 | 
10 |  |  |  | 470 | NC(=O)c1ccc(Oc2cccc(C(=O)N3CCC(c4ccccc4F)CC3)c2)cc1 | 
